≈ marks a conversion by molar mass, not a printed value. Like-named read-outs stand apart in the source and are kept apart here.

These results are taken from US4436904A, “Cephalosporins” (Kanto Ishi Pharmaceutical Co., Ltd., priority 1981, dated 1984).

Assay in all cases: Minimum inhibitory concentration (MIC), standard method of the Japanese Chemotherapeutic Association
Assay [1] has as its system Enterobacter aerogenes IID 5206. The class given is cell-based. The conditions noted are these: Klebsiella aerogenes, IID5206, Inoculum size: 10^6 cells/ml, read-out: Minimum Inhibitory Concentration (MIC).
In another assay the test system is Proteus morganii IID 602. Type of assay: cell-based. The conditions noted are these: Morganella morganii.
In another assay the test system is Shigella boydii IID 627. The class given is cell-based. The conditions noted are these: IID627, Inoculum size: 10^6 cells/ml.
For the next assay, the system named is Shigella sonnei IID 969. The class given is cell-based. The conditions noted are these: IID969, Inoculum size: 10^6 cells/ml.
The test system of assay [2] is Staphylococcus aureus 209-P. Type of assay: cell-based. As to conditions: Inoculum size: 10^6 cells/ml, read-out: Minimum Inhibitory Concentration (MIC).
Assay [3] has as its system Enterobacter cloacae IID 977. Type of assay: cell-based. As to conditions: IID977, Inoculum size: 10^6 cells/ml, read-out: Minimum Inhibitory Concentration (MIC).
For assay [4], the system named is Pseudomonas aeruginosa IFO 13739. Type of assay: cell-based. The conditions noted are these: IFO13739, Inoculum size: 10^6 cells/ml, read-out: Minimum Inhibitory Concentration (MIC).
For assay [5], the system named is Salmonella paratyphi IID 605. As to conditions: Salmonella enterica, IID605|PARATYPHI, read-out: Minimum Inhibitory Concentration (MIC).
Assay [6] concerns Salmonella enteritidis IID 604. The class given is cell-based. As to conditions: Salmonella enterica, read-out: Minimum Inhibitory Concentration (MIC).
Assay [7] deals with Staphylococcus aureus TERAJIMA
Type of assay: cell-based. As to conditions: Inoculum size: 10^6 cells/ml, read-out: Minimum Inhibitory Concentration (MIC).

In the next assay the test system is Escherichia coli N I H J. The class given is cell-based. The conditions noted are these: Inoculum size: 10^6 cells/ml, read-out: Minimum Inhibitory Concentration (MIC).
For the next assay, the system named is Proteus vulgaris. Type of assay: cell-based. As to conditions: read-out: Minimum Inhibitory Concentration (MIC).
In assay [8] the test system is Shigella dysenteriae IID 633. The conditions noted are these: IID633, read-out: Minimum Inhibitory Concentration (MIC).
For assay [9], the system named is Serratia marcenscens IFO 12648. The class given is cell-based.
Assay [10] concerns Pseudomonas pudita IID 5121. The class given is cell-based. As to conditions: IID5121, Inoculum size: 10^6 cells/ml, read-out: Minimum Inhibitory Concentration (MIC).
The test system of assay [11] is Pseudomonas aeruginosa IFO 3080. The class given is cell-based.
The test system of assay [12] is Bacillus subtilis ATCC 6633. The class given is cell-based. As to conditions: ATCC6633, Inoculum size: 10^6 cells/ml, read-out: Minimum Inhibitory Concentration (MIC).
The test system of assay [13] is Staphylococcus epidermidis ATCC12228. Type of assay: cell-based. The conditions noted are these: ATCC12228, Inoculum size: 10^6 cells/ml, read-out: Minimum Inhibitory Concentration (MIC).
A further assay relates to Escherichia coli MEGAWA. Type of assay: cell-based. As to conditions: Escherichia coli, Inoculum size: 10^6 cells/ml, read-out: Minimum Inhibitory Concentration (MIC).
Assay [14] concerns Klebsiella pneumoniae IID 865. The class given is cell-based. As to conditions: IID865, Inoculum size: 10^6 cells/ml, read-out: Minimum Inhibitory Concentration (MIC).
For assay [15], the system named is Salmonella typhimurium IID 1000. Type of assay: cell-based. As to conditions: Salmonella enterica, read-out: Minimum Inhibitory Concentration (MIC).
Setting [16] is: Inoculum size: 10^6 cells/ml, potency concentration.

Take `CN(C)CCn1nnnc1SCC1=C(C(=O)O)N2C(=O)[C@@H](NC(=O)Cc3csc(N)n3)[C@H]2SC1` [CTM, cefotiam, reference compound]: the MIC in assay [1] (potency concentration) is 1.56 µg/mL (≈ 2.97 µM); in the assay on Proteus morganii IID 602 (IID602, Inoculum size: 10^6 cells/ml, potency concentration, read-out: Minimum Inhibitory Concentration (MIC)), 0.39 µg/mL (≈ 0.742 µM); in the assay with Shigella boydii IID 627 (potency concentration), less than 0.1 µg/mL; in the assay with Shigella sonnei IID 969 (potency concentration) it was less than 0.1 µg/mL; in [2] (potency concentration) it was 0.39 µg/mL (≈ 0.742 µM); in [3] (potency concentration) it was 3.13 µg/mL (≈ 5.95 µM). Moreover, the MIC in assay [4] (potency concentration) is more than 100 µg/mL; in assay [5] it was less than 0.1 µg/mL; in [6] (setting [16]) it was 0.2 µg/mL (≈ 0.38 µM); in assay [7] (potency concentration), 0.78 µg/mL (≈ 1.48 µM); with Escherichia coli N I H J (potency concentration), less than 0.1 µg/mL; with Proteus vulgaris (setting [16]), 0.39 µg/mL (≈ 0.742 µM). The MIC in assay [8] is less than 0.1 µg/mL; in [9] (IFO12648, Inoculum size: 10^6 cells/ml, potency concentration, read-out: Minimum Inhibitory Concentration (MIC)) it was 25 µg/mL (≈ 47.6 µM); in assay [10] (potency concentration), more than 100 µg/mL; in assay [11] (IFO3080, Inoculum size: 10^6 cells/ml, potency concentration, read-out: Minimum Inhibitory Concentration (MIC)), more than 100 µg/mL; in assay [12] (potency concentration), 0.39 µg/mL (≈ 0.742 µM); in assay [13] (potency concentration), 0.39 µg/mL (≈ 0.742 µM). Also, the MIC in the assay with Escherichia coli MEGAWA (potency concentration) is 6.25 µg/mL (≈ 11.9 µM); in assay [14] (potency concentration) it was less than 0.1 µg/mL; in [15] (setting [16]) it was less than 0.1 µg/mL.
As to `Cc1nnc(SCC2=C(C(=O)O)N3C(=O)C(NC(=O)[C@H](NC(=O)N4CCN(N=C5SCCS5)C4=O)c4ccccc4)C3SC2)s1` (single isomer, unassigned) [TO-180, 7-{D-(-)-α-[(2-oxo-3-(1,3-dithiolan-2-imino)-imidazolidin-1-yl)-carboxamido]-phenylacetoamide}-3-[5-methyl-(1,3,4-thiadiazol-2-yl)-thiomethyl]-3-cephem-4-carboxylic acid], the MIC in [1] (weight concentration) turned out to be 3.13 µg/mL (≈ 4.43 µM); in the assay on Proteus morganii IID 602 (IID602, read-out: Minimum Inhibitory Concentration (MIC)) it was 1.56 µg/mL (≈ 2.21 µM); in the assay on Shigella boydii IID 627 (weight concentration), 0.39 µg/mL (≈ 0.552 µM); against Shigella sonnei IID 969 (weight concentration), 0.39 µg/mL (≈ 0.552 µM); in assay [2] (weight concentration), 0.39 µg/mL (≈ 0.552 µM); in assay [3] (weight concentration), 3.13 µg/mL (≈ 4.43 µM). Besides, the MIC in [4] (weight concentration) is 6.25 µg/mL (≈ 8.84 µM); in [5], 1.56 µg/mL (≈ 2.21 µM); in assay [6] it was 1.56 µg/mL (≈ 2.21 µM); in assay [7] (weight concentration), 0.39 µg/mL (≈ 0.552 µM); in the assay on Escherichia coli N I H J (weight concentration), less than 0.1 µg/mL; in the assay on Proteus vulgaris it was 1.56 µg/mL (≈ 2.21 µM). Further, the MIC was 0.39 µg/mL (≈ 0.552 µM) in assay [8]; 1.56 µg/mL (≈ 2.21 µM) in [9] (IFO12648, read-out: Minimum Inhibitory Concentration (MIC)); 25 µg/mL (≈ 35.4 µM) in assay [10] (weight concentration); 1.56 µg/mL (≈ 2.21 µM) in [11] (IFO3080, read-out: Minimum Inhibitory Concentration (MIC)); 0.78 µg/mL (≈ 1.1 µM) in assay [12] (weight concentration); 0.39 µg/mL (≈ 0.552 µM) in assay [13] (weight concentration). The MIC in the assay with Escherichia coli MEGAWA (weight concentration) amounted to 6.25 µg/mL (≈ 8.84 µM); in assay [14] (weight concentration), 0.39 µg/mL (≈ 0.552 µM); in [15], 1.56 µg/mL (≈ 2.21 µM).
